How the values were obtained:
[1] = xn = mol fraction of the nth substance listed; conditions: for mass density / speed of sound / viscosity: 101 kPa, Liquid
[2] = refractive index (Na D-line) (dimensionless); xn = mol fraction of the nth substance listed; conditions: 101 kPa, Liquid

CC(=O)CC(C)(C)O [4-hydroxy-4-methylpentan-2-one] + O=[N+]([O-])c1ccccc1
Conditions | mass density, [1] [kg/m3] | refractive index, [2] | speed of sound, [1] [m/s] | surface tension liquid-gas, [1] [mN/m] | viscosity, [1] [mPa·s]
303.15 K, x1 = 0.1248 | 1163.9 | 1.5377 | 1395 | 39.8 | 2.022
303.15 K, x1 = 0.2389 | 1130.2 | 1.5245 | 1378 | 38.7 | 2.161
303.15 K, x1 = 0.3446 | 1102.1 | 1.5113 | 1363 | 37.5 | 2.282
303.15 K, x1 = 0.4921 | 1062 | 1.4931 | 1341 | 35.9 | 2.45
303.15 K, x1 = 0.5853 | 1038 | 1.4822 | 1327 | 34.7 | 2.562
303.15 K, x1 = 0.6427 | 1023 | 1.474 | 1317 | 34 | 2.624
303.15 K, x1 = 0.7532 | 995.6 | 1.4601 | 1298 | 32.7 | 2.735
303.15 K, x1 = 0.8226 | 979.1 | 1.45 | 1287 | 31.7 | 2.791
303.15 K, x1 = 0.9349 | – | 1.43 | 1263 | 29.5 | 2.889
303.15 K, x1 = 1 | 936 | 1.4239 | 1256 | 29.44 | 2.89
313.15 K, x1 = 0.1248 | 1157.7 | 1.5351 | 1304 | 37.45 | 1.752
313.15 K, x1 = 0.2389 | 1120.9 | 1.521 | 1290 | 36.6 | 1.931
313.15 K, x1 = 0.3446 | 1088.8 | 1.508 | 1277 | 35.6 | 2.137
313.15 K, x1 = 0.4921 | 1046.3 | 1.4897 | 1258 | 34.3 | 2.412
313.15 K, x1 = 0.5853 | 1019.9 | 1.4782 | 1244 | 33.4 | 2.541
313.15 K, x1 = 0.6427 | 1004.4 | 1.4706 | 1236 | 32.8 | 2.661
313.15 K, x1 = 0.7532 | 975.5 | 1.4548 | 1221 | 31.7 | 2.741
313.15 K, x1 = 0.8226 | 957.8 | 1.4456 | 1211 | 31 | 2.764
313.15 K, x1 = 0.9349 | – | 1.4261 | 1190 | 29.4 | 2.79
313.15 K, x1 = 1 | 912 | 1.4198 | 1183 | 28.92 | 2.791
323.15 K, x1 = 0.1248 | 1146.5 | 1.5304 | 1212 | 35.8 | 1.658
323.15 K, x1 = 0.2389 | 1109.6 | 1.5268 | 1201 | 35 | 1.843
323.15 K, x1 = 0.3446 | 1077.5 | 1.5048 | 1192 | 34.3 | 2.018
323.15 K, x1 = 0.4921 | 1035 | 1.486 | 1178 | 33.11 | 2.32
323.15 K, x1 = 0.5853 | 999.9 | 1.475 | 1169 | 32.3 | 2.492
323.15 K, x1 = 0.6427 | 993.1 | 1.4675 | 1163 | 31.8 | 2.579
323.15 K, x1 = 0.7532 | 964.3 | 1.4503 | 1152 | – | 2.651
323.15 K, x1 = 0.8226 | 946.6 | 1.4412 | 1144 | 30.1 | 2.661
323.15 K, x1 = 0.9349 | 910 | 1.4215 | 1128 | 28.8 | 2.67
323.15 K, x1 = 1 | 901 | 1.4151 | 1121 | 28.12 | 2.67

Source: the NIST ThermoML archive (doi:10.1021/je8002699)
